Source: the NIST ThermoML archive (doi:10.1016/j.jct.2006.07.015)

Assays:
[1] = 298.15 K, 101.33 kPa, Liquid; for viscosity: Capillary tube (Ostwald / Ubbelohde) method; for speed of sound: Sing-around technique in a fixed-path interferometer; for mass density: Vibrating tube method
[2] = xn = mol fraction of the nth substance listed; settings: 298.15 K, 101 kPa, Liquid; for viscosity: Capillary tube (Ostwald / Ubbelohde) method; for speed of sound: Sing-around technique in a fixed-path interferometer; for mass density: Vibrating tube method

CCCCCCCO [heptan-1-ol]
[1]
Settings | mass density [kg/m3] | speed of sound [m/s] | viscosity [mPa·s]
– | 818.77 | 1329 | 6.041

CCCCCCCO [heptan-1-ol] + CC1CCCCC1
[2]
Settings | mass density [kg/m3] | speed of sound [m/s] | viscosity [mPa·s]
x1 = 0.1 | 770.2 | – | –
x1 = 0.1009 | – | – | 0.797
x1 = 0.1031 | – | 1217 | –
x1 = 0.1506 | 773.03 | – | –
x1 = 0.2001 | 775.76 | – | –
x1 = 0.2007 | – | – | 0.956
x1 = 0.2024 | – | 1225 | –
x1 = 0.3006 | – | 1236 | –
x1 = 0.3011 | 781.37 | – | 1.174
x1 = 0.4 | 786.91 | – | –
x1 = 0.4011 | – | – | 1.461
x1 = 0.4033 | – | 1247 | –
x1 = 0.449 | 789.61 | – | –
x1 = 0.4501 | – | – | 1.64
x1 = 0.4973 | – | 1259 | –
x1 = 0.4985 | – | – | 1.839
x1 = 0.5002 | 792.45 | – | –
x1 = 0.5394 | – | 1264 | –
x1 = 0.5497 | 795.18 | – | –
x1 = 0.5999 | 797.98 | – | –
x1 = 0.6026 | – | 1273 | –
x1 = 0.6033 | – | – | 2.384
x1 = 0.6503 | 800.71 | – | –
x1 = 0.7007 | 803.42 | – | –
x1 = 0.7045 | – | 1287 | –
x1 = 0.7417 | – | – | 3.369
x1 = 0.7972 | – | 1300 | –
x1 = 0.7985 | – | – | 3.875
x1 = 0.8 | 808.68 | – | –
x1 = 0.8495 | 811.24 | – | –
x1 = 0.8951 | – | 1315 | –
x1 = 0.8998 | 813.8 | – | –
x1 = 0.9006 | – | – | 4.922
x1 = 1 | – | 1329 | –

CCCCCCCO [heptan-1-ol] + ClC(Cl)=C(Cl)Cl
Settings | speed of sound [m/s]
[2], x1 = 1 | 1329

CC1CCCCC1 [methylcyclohexane]
[1]
Settings | mass density [kg/m3] | speed of sound [m/s] | viscosity [mPa·s]
– | 764.99 | 1209 | 0.684

CC1CCCCC1 [methylcyclohexane] + CCCCCCCO
Settings | speed of sound [m/s]
[2], x2 = 0 | 1215

CC1CCCCC1 [methylcyclohexane] + ClC(Cl)=C(Cl)Cl
Settings | speed of sound [m/s]
[2], x2 = 0 | 1215

ClC(Cl)=C(Cl)Cl [tetrachloroethene]
[1]
Settings | mass density [kg/m3] | speed of sound [m/s] | viscosity [mPa·s]
– | 1614.49 | 1039 | 0.847

ClC(Cl)=C(Cl)Cl [tetrachloroethene] + CC1CCCCC1
[2]
Settings | mass density [kg/m3] | speed of sound [m/s] | viscosity [mPa·s]
x1 = 0.0999 | – | – | 0.69
x1 = 0.1007 | 834.38 | – | –
x1 = 0.1924 | 900.06 | – | –
x1 = 0.2 | 905.67 | – | –
x1 = 0.2068 | – | – | 0.698
x1 = 0.2439 | – | 1184 | –
x1 = 0.2504 | 942.96 | – | –
x1 = 0.2505 | – | – | 0.701
x1 = 0.2982 | – | – | 0.705
x1 = 0.3011 | 981.34 | – | –
x1 = 0.3029 | 982.75 | – | –
x1 = 0.3944 | – | – | 0.716
x1 = 0.4001 | 1058.76 | – | –
x1 = 0.4173 | – | 1156 | –
x1 = 0.4897 | – | 1146 | –
x1 = 0.4996 | – | – | 0.728
x1 = 0.5009 | 1141.4 | – | –
x1 = 0.5494 | – | 1136 | –
x1 = 0.5503 | 1183.38 | – | –
x1 = 0.5984 | 1225.08 | – | –
x1 = 0.6016 | – | – | 0.746
x1 = 0.6496 | 1270.62 | – | –
x1 = 0.6549 | – | 1116 | –
x1 = 0.7007 | – | – | 0.765
x1 = 0.7014 | 1317.87 | – | –
x1 = 0.7372 | – | 1098 | –
x1 = 0.7786 | – | 1089 | –
x1 = 0.7995 | 1410.5 | – | –
x1 = 0.8008 | – | – | 0.789
x1 = 0.8104 | – | 1082 | –
x1 = 0.8418 | – | 1075 | –
x1 = 0.8489 | 1458.9 | – | –
x1 = 0.8693 | – | 1069 | –
x1 = 0.8986 | 1508.67 | – | –
x1 = 0.8996 | – | – | 0.816
x1 = 0.9188 | – | 1057 | –
x1 = 1 | – | 1039 | –

ClC(Cl)=C(Cl)Cl [tetrachloroethene] + CCCCCCCO
[2]
Settings | mass density [kg/m3] | speed of sound [m/s] | viscosity [mPa·s]
x2 = 0 | – | 1039 | –
x2 = 0.093 | 1514.31 | – | –
x2 = 0.0967 | – | 1050 | –
x2 = 0.102 | – | – | 0.995
x2 = 0.1957 | – | 1069 | –
x2 = 0.1994 | 1409 | – | –
x2 = 0.2118 | – | – | 1.222
x2 = 0.2492 | – | 1082 | –
x2 = 0.2498 | – | – | 1.32
x2 = 0.2502 | 1361.6 | – | –
x2 = 0.2952 | – | 1093 | –
x2 = 0.2986 | 1318.1 | – | –
x2 = 0.3015 | – | – | 1.457
x2 = 0.3905 | – | 1120 | –
x2 = 0.3979 | 1233.3 | – | –
x2 = 0.3997 | – | – | 1.795
x2 = 0.4452 | 1194.85 | – | –
x2 = 0.4667 | – | 1142 | –
x2 = 0.4983 | 1153.02 | – | –
x2 = 0.4998 | – | – | 2.24
x2 = 0.5478 | – | – | 2.485
x2 = 0.5495 | 1114.05 | – | –
x2 = 0.5531 | – | 1169 | –
x2 = 0.587 | – | – | 2.703
x2 = 0.5894 | – | 1178 | –
x2 = 0.5995 | 1077.22 | – | –
x2 = 0.6488 | 1042 | – | –
x2 = 0.6507 | – | 1200 | –
x2 = 0.6969 | 1008.69 | – | –
x2 = 0.6995 | – | – | 3.451
x2 = 0.7002 | – | 1217 | –
x2 = 0.74 | – | – | 3.742
x2 = 0.7932 | 944.69 | – | –
x2 = 0.7954 | – | – | 4.184
x2 = 0.7989 | – | 1252 | –
x2 = 0.8497 | 908.83 | – | –
x2 = 0.8969 | – | 1290 | –
x2 = 0.8985 | – | – | 5.06
x2 = 0.8986 | 878.72 | – | –
